# Values quoted from earlier work in patent US20020098221A1, “Oil-in-water emulsion formulation of insecticides” (priority 2000, published 2002).
# Conditions: at room temperature
row,SMILES,solubility in water [%]
1,COCC(C)O (centres unmarked) [1-methoxy-2-propanol],100
2,OCc1ccccc1 [benzyl alcohol],4
3,O=C1CCCCC1 [cyclohexanone],8
4,C[S+](C)[O-] [dimethylsulfoxide],100
5,CN1CCCC1=O [n-methylpyrrolidone],100
